Test results reported in US7361690B2, “Compositions and methods for the treatment of urinary incontinence” (Gruenenthal GmbH, priority 2000, dated 2008).
Marks after values point to notes of the source that are not given here.

Assays:
[1] = system: female Sprague-Dawley rats; assay: Cystometry tests on conscious fresh rats; type: in vivo, rat; settings: effect maximum, mean of 3 micturition cycles
Method: Cystometry investigations were carried out on fresh female Sprague-Dawley rats according to the method of Ishizuka et. al. ((1997), Naunyn-Schmiedeberg's Arch. Pharmacol. 355: 787-793). Three days after implantation of bladder and venous catheters the animals were investigated in the conscious state while freely moving. The bladder catheter was connected to a pressure gauge and an injection pump. The animals were placed in metabolic cages that enable the volume of urine to be measured. Physiological saline solution was infused (10 ml/hour) into the emptied bladder and the bladder pressure and volume of urine were continuously recorded. After a stabilization phase a 20-minute phase was recorded that was characterized by normal, reproducible micturition cycles. The following parameters among others were measured: • threshold pressure (TP), bladder pressure immediately before micturition, • bladder capacity (BC), residual volume after prior micturition plus volume of infused solution during the filling phase, • intercontraction interval (ICI), the time interval between consecutive micturition.
An increase in the threshold pressure (TP) indicates an important therapeutic effect in one of the medical conditions suitable for treatment with the method of the invention. Also, the intercontraction interval (ICI) is an important parameter for measuring the physiological effectiveness of a substance in the treatment of urinary incontinence, as is the bladder capacity (BC). In this connection, on account of the widely differing causes of the symptoms of these disease patterns it is not necessary to influence positively all three parameters in order for a medicament to be effective.
After recording three reproducible micturition cycles to provide a baseline value, the test substances 24 (1.0; 3.0; 5.0 mg/kg), 25 (1.5 mg/kg) and 26 (3.0 mg/kg) in a vehicle comprising 0.9% NaCl were applied intravenously and the effect on the cystometric parameters was recorded at 90 to 120 minutes. In the effect maximum the mean value of 3 micturition cycles was determined and recorded as a percentage change compared to the baseline value (Table 1).

[2] = system: narcotized ventilated rats; assay: Cystometry investigations in narcotized fresh rats (suppression of rhythmic spontaneous bladder contractions); type: in vivo, rat; settings: intravenous, cumulative, lowest dose at which contractions disappeared for the first time over a period of 10 minutes
Method: The cystometric investigation was carried out on fresh female rats according to the method of Kimura et al. (Kimura et al., 1996, Int. J. Urol. 3: 218-227). The abdomen of narcotized ventilated rats is opened and the ureter is ligated. The urine is drawn off from the kidneys. A catheter is inserted into the bladder and secured in place. […] The test substance is applied intravenously in a cumulative manner after stable starting values were reached. An effect on the bladder function is manifested by the suppression of the spontaneous contractions. The disappearance of the contractions over a period of 10 minutes serves as a parameter for their suppression.
With all the substances listed there was a measurable suppression of the spontaneous contractions in rats.

Row | Molecule | BC Bladder Capacity, change compared to the baseline value ([1]; 3.0 mg/kg iv) | ICI Inter-Contraction Interval, change compared to the baseline value ([1]; 3.0 mg/kg iv) | TP Threshold Pressure, change compared to the baseline value ([1]; 3.0 mg/kg iv) | Mean Value of Lowest Dose for Contraction Suppression [2] | other results
1 | COc1cccc([C@@]2(O)C[C@H](O)CC[C@@H]2CN(C)C)c1.Cl (racemic) [Compound 24, (1RS,3RS,6RS)-6-dimethylaminomethyl-1-(3-methoxyphenyl)-cyclohexane-1,3-diol, hydrochloride] | −16.0%* | −16%* | +94.0%** |  | BC Bladder Capacity, change compared to the baseline value ([1]; 1.0 mg/kg iv): −8.0%; ICI Inter-Contraction Interval, change compared to the baseline value ([1]; 1.0 mg/kg iv): −15%**; TP Threshold Pressure, change compared to the baseline value ([1]; 1.0 mg/kg iv): +44.0%***; BC Bladder Capacity, change compared to the baseline value ([1]; 5.0 mg/kg iv): −26.0%; ICI Inter-Contraction Interval, change compared to the baseline value ([1]; 5.0 mg/kg iv): −21.2%; TP Threshold Pressure, change compared to the baseline value ([1]; 5.0 mg/kg iv): +69.0%*
2 | C[C@H]1CC[C@H](CN(C)C)[C@@](O)(c2cccc(O)c2)C1.Cl [Compound 28, (+)-(1R,2R,5S)-3-(2-dimethylaminomethyl-1-hydroxy-5-methylcyclohexyl)-phenol, hydrochloride] |  |  |  | 16.7 (n = 3) mg/kg | 
3 | CN(C)C[C@H]1CC[C@@H](O)C[C@]1(O)c1cccc(O)c1.Cl (racemic) [Compound 26, (1RS,3RS,6RS)-6-dimethylaminomethyl-1-(3-hydroxyphenyl)-cyclohexane-1,3-diol, hydrochloride] | +29.0%*** | +27.0%* | +86.0%*** |  | 
4 | COc1cccc([C@@]2(O)C[C@H](O)CC[C@@H]2CN(C)C)c1.Cl [Compound 25, (+)-(1R,3R,6R)-6-dimethylaminomethyl-1-(3-methoxyphenyl)-cyclohexane-1,3-diol, hydrochloride] |  |  |  |  | BC Bladder Capacity, change compared to the baseline value ([1]; 1.5 mg/kg iv): −14.0%*; ICI Inter-Contraction Interval, change compared to the baseline value ([1]; 1.5 mg/kg iv): −9.0%; TP Threshold Pressure, change compared to the baseline value ([1]; 1.5 mg/kg iv): +62.0%*
5 | COc1cccc([C@@]2(O)C[C@@H](O)CC[C@@H]2CN(C)C)c1.Cl (racemic) [Compound 27, (1RS,3SR,6RS)-6-dimethylaminomethyl-1-(3-methoxyphenyl)-cyclohexane-1,3-diol, hydrochloride] |  |  |  | 115 (n = 2) mg/kg | 
6 | (1RS,2RS,5RS)-3-(2-dimethylaminomethyl-1-hydroxy-5-trifluoromethylcyclohexyl)-phenol,hydrochloride [Compound 29] |  |  |  | 23.3 (n = 3) mg/kg | 
